These results are taken from patent publication US12208130B2, “Treatment of women affected with polycystic ovary syndrome” (INSTITUT NATIONAL DE LA SANTE ET DE LA RECHERCHE MEDICALE …, priority 2017, dated 2025).

Where a SMILES comes first, the peptide text is derived from it. [ ]: non-standard residue; d: D form. dPhe(4-Cl) = N[C@H](Cc1ccc(Cl)cc1)C(=O)O; d2Nal = N[C@H](Cc1ccc2ccccc2c1)C(=O)O; dCit = NC(=O)NCCC[C@@H](N)C(=O)O; d3Pal = N[C@H](Cc1cccnc1)C(=O)O

Test [1] deals with pregnant mice. In words: LH, T, E2 and P measurement in pregnant mice at E19.5. The format is in vivo, mouse. How it is done: PAMH+GnRH antag. (FIG. 3D) Schematic representation of tail-tip blood sampling in adult diestrus female mice (3-4 months old). (FIG. 3E) Tail blood was collected every 10 min for 2 h and LH measured from 10 a.m-12 p.m in adult (P60) diestrus females (Control, n=8; PAMH, n=10; PAMH+GnRH antag, n=9; One-way ANOVA and Tukey's multiple comparison post hoc test, F(2,24)=57.06, *P<0.05, ***P<0.0001). Bars from left to right: Control, PAMH, PAMH+GnRH antag. (FIGS. 2F-1, 2F-2, 2F-3) Representative graphs for LH pulsatility over 2-hr in one female adult (P60) mouse of each treatment. Asterisks in (FIG. 3F) indicate the number of LH pulses/2-hr. (FIG. 3G) Mean circulating testosterone and LH levels were analyzed in pregnant PBS-treated (n=4) and AMH-treated (n=4) dams at embryonic day (E) 19.5 of gestation. […] Values are expressed as relative to the mean of each treatment. All values are expressed as mean±s.e.m. […]
For the analysis of circulating LH and T levels, animals were decapitated and trunk blood from adult (P60) animals and P0 pups (1-2 hrs after birth) were collected in sterile Eppendorf tubes and left on ice until centrifugation. […] LH levels were determined by a sandwich ELISA, as described previously (Vidal et al., 2012, PloS one, Vol. 7: e39001), using the mouse LH-RP reference provided by A. F. Parlow (National Hormone and Pituitary Program, Torrance, CA). […]

Test [2] has as its system placenta. In words: Quantitative RT-PCR of E19.5 placental tissue. Type of test: in vivo, mouse. Particulars: dams i.p. AMH + GnRH antag E16.5-E18.5; placenta E19.5. How it is done: PAMH+GnRH antag. (FIG. 3D) Schematic representation of tail-tip blood sampling in adult diestrus female mice (3-4 months old). (FIG. 3E) Tail blood was collected every 10 min for 2 h and LH measured from 10 a.m-12 p.m in adult (P60) diestrus females (Control, n=8; PAMH, n=10; PAMH+GnRH antag, n=9; One-way ANOVA and Tukey's multiple comparison post hoc test, F(2,24)=57.06, *P<0.05, ***P<0.0001). Bars from left to right: Control, PAMH, PAMH+GnRH antag. (FIGS. 2F-1, 2F-2, 2F-3) Representative graphs for LH pulsatility over 2-hr in one female adult (P60) mouse of each treatment. Asterisks in (FIG. 3F) indicate the number of LH pulses/2-hr. (FIG. 3G) Mean circulating testosterone and LH levels were analyzed in pregnant PBS-treated (n=4) and AMH-treated (n=4) dams at embryonic day (E) 19.5 of gestation. […] (FIG. 3H) Relative mRNA expression of placental Cyp191a (aromatase) in control (n=4) and AMH (n=4)-treated pregnant animals at E19.5. Cyp191a expression in the placenta is […] in AMH-treated pregnant dams as compared to control-treated pregnant dams (Unpaired Student's t-test, t(6)=5.414, **P<0.005). Values are expressed as relative to the mean of each treatment. All values are expressed as mean±s.e.m. (FIGS. 3I-1, 3I-2, 3I-3, 3I-4) Dams were injected from E16.5 to E18.5 with either PBS (vehicle, n=9-11), AMH (n=8-10), AMH+GnRH antag (n=5) and trunk blood was collected at E19.5 for hormonal measurements by ELISA. Data were combined from at least two independent experiments. In FIGS. 3I-1, 3I-2, 3I-3, 3I-4: left bar: vehicle; middle bar: AMH; right bar: AMH+GnRH antagonist. (FIGS. 3J-1, 3J-2, 3J-3, 3J-4)) Real-time PCR analysis of expression levels of AMHR2, CYP191A (cytochrome P450 family 19A1, aromatase), CYP11A1 (cytochrome P450 family 11A1), HSD3B1 (3beta-hydroxysteroid dehydrogenase/delta(5)-delta(4)isomerase type I or hydroxy-delta-5-steroid dehydrogenase) mRNA in the placenta of E19.5 dams. Dams were injected i.p. from E16.5 to E18.5 with either PBS (vehicle, n=8-17), AMH (n=7-11), or AMH+GnRH antag (n=8-13). Data were combined from three independent experiments. […] In FIGS. 3J-1, 3J-2, 3J-3, 3J-4: left bar: vehicle; middle bar: AMH; right bar: AMH+GnRH antagonist.
E19.5 placental tissue from female control and PAMH embryos was isolated for total RNA was using Trizol (ThermoFisher Scientific, Cat #15596026) and the RNeasy Lipid Tissue Mini Kit (Qiagen; Cat #74804) using the manufacturer's instructions. For gene expression analyses, mRNAs […] from E19.5 placental tissue were reverse transcribed using SuperScript® IV Reverse Transcriptase (Life Technologies). Real-time PCR was carried out on Applied Biosystems 7900HT Fast Real-Time PCR system using exon-boundary-specific TaqMan® Gene Expression Assays (Applied Biosystems): Amhr2 (AMHR2-Mm00513847_m1); Cyp19a1 (Cyp19a1-Mm00484049_m1); Cyp11a1 (Cyp11a1-Mm00490735_m1); HSD3b1 (Hsd3b1-Mm01261921_mH); GnRH (Gnrh-Mm01315604_m1); GnRH-R (Gnrhr-Mm00439143_m1); LH-R (Lhcgr-Mm00442931_m1). Control housekeeping genes: ActB (ActB-Mm00607939_s1); GAPDH (GAPDH-Mm99999915_g1).
Quantitative RT-PCR was performed using TaqMan® Low-Density Arrays (Applied Biosystems) on an Applied Biosystems thermocycler using the manufacturer's recommended cycling conditions. Gene expression data were analyzed using SDS 2.4.1 and Data Assist 3.01 software (Applied Biosystems), with ActB and GAPDH as control house-keeping mRNA following a standardized procedure. […]

As to `CC(=O)N[C@H](Cc1ccc2ccccc2c1)C(=O)N[C@H](Cc1ccc(Cl)cc1)C(=O)N[C@H](Cc1cccnc1)C(=O)N[C@@H](CO)C(=O)N[C@@H](Cc1ccc(O)cc1)C(=O)N[C@H](CCCNC(N)=O)C(=O)N[C@@H](CC(C)C)C(=O)N[C@@H](CCCNC(=N)N)C(=O)N1CCC[C@H]1C(=O)N[C@H](C)C(N)=O` [Cetrorelix acetate, Ac-D-2Nal-D-Phe(4-Cl)-D-3Pal-Ser-Tyr-D-Cit-Leu-Arg-Pro-D-Ala-NH2] (Ac-[d2Nal][dPhe(4-Cl)][d3Pal]SY[dCit]LRP[dA]-NH2), the “circulating T in dams” value in test [1] (dams i.p. AMH + GnRH antag E16.5-E18.5) is “very low T levels”. Also, in test [1] (dams i.p. AMH + GnRH antagonist E16.5-E18.5), the “AMH-induced increase of LH in pregnant mice” value is “prevented”. For the same molecule, in test [2], the “AMH-driven downregulation of placental HSD3B1 gene expression” value is recorded as “prevented the downregulation”, the “AMH-driven inhibition of placental CYP19A1 mRNA” value is given as “prevented”, the “placental CYP11A1 expression” value is “did not find any difference” and the “placental LHR expression” value was “normalized”. Also, the “placental expression of GnRH and GnRHR” value in test [2] is “unchanged”.
